From paper PMC6155273, “Antiprotozoal Activity of Triazole Derivatives of Dehydroabietic Acid and Oleanolic Acid” (Molecules : A Journal of Synthetic Chemistry and Natural …, 2017)
pIC50: −log10 of the molar value. Converted amounts (≈) assume the structure as drawn. Where two headings read alike, the source gives them in different places.

How the values were obtained:
[1] = system: axenically grown L. donovani amastigotes; settings: literature value, no reference given; read-out: IC50 against axenically grown L. donovani amastigotes; cited from earlier work
[2] = system: L. braziliensis promastigotes; experiment: Leishmanicidal activity on L. braziliensis promastigotes (resazurin); type: cell-based, Leishmania braziliensis; settings: Leishmania braziliensis, 48 h, read-out: Leishmanicidal Activity on Promastigotes, L. braziliensis, IC50
Description: (§1) Culture of L. braziliensis (MHOM/BR/75/M2904), and L. infantum (MHOM/FR/91/LEM2259V) was obtained from the Facultad de Farmacia (Universidad Complutense de, Madrid, Spain). The maintenance of the strains, the form of cultivation, and the isolation of shape promastigota were performed following the procedures described by Roldos et al.. The promastigotes were grown at 22 °C in Schneider’s Drosophila medium supplemented with 20% FBS. The assay was performed using a modification of a previous method. Promastigotes (2 × 10^6 parasites/well) were cultured in 96-well plastic plates. Compounds were dissolved in dimethylsulfoxide (DMSO). Different dilutions of the compounds with a final volume up to 200 µL were added. After 48 h at 26 °C, 20 µL of a 2 mM resazurin solution was added, and the oxidation-reduction was quantified at 570 and 600 nm. The solution of resazurin was prepared at 2.5 mM in phosphate buffered solution (PBS), pH 7.4, and filtered through 0.22 µm prior to use. All tests were carried out in triplicate. Resazurin sodium salt was obtained from Sigma-Aldrich (St. Louis, MO, USA) and stored at 4 °C protected from light. The efficacy of each compound was estimated by calculating the IC50 values.

[3] = system: L. amazonensis amastigote; set-up: method as in PMID 15070160; settings: cited from earlier work
T. cruzi epimastigotes = experiment: Antiepimastigote activity, T. cruzi CL-B5 lacZ (CPRG); type: cell-based, Trypanosoma cruzi; settings: Trypanosoma cruzi, clone CL-B5, 72 h
Description: For in vitro studies of T. cruzi, the clone CL-B5 was used (donated by Faculty of Pharmacy, Complutense University, Madrid, Spain). Parasites were stably transfected with the Escherichia coli β-galactosidase gene (lacZ). Epimastigotes were grown at 28 °C in liver infusion tryptose broth (Difco, Detroit, MI, USA) with 10% fetal bovine serum (FBS) (Gibco, Carlsbad, CA, USA), penicillin (Ern S.A., Barcelona, Spain), and streptomycin (Reig Jofré S.A., Barcelona, Spain), as described previously, and harvested during the exponential growth phase. Briefly, the screening assay was performed in 96-well microplates (Sarstedt, Inc., Newton, NC, USA) with cultures that had not reached the stationary phase. Epimastigotes were seeded at 2 × 10^5 parasites/mL in 200 µL growth media. The plates were then incubated with the respective compounds at 28 °C for 72 h; afterwards, 50 µL of chlorophenol red-β-D-galactopyranoside (CPRG) solution was added, resulting in a final concentration of 200 µM. The plates were incubated at 37 °C for an additional 4 h and then read at 595 nm. Each concentration was tested in triplicate. The efficacy of each compound was estimated by calculating the IC50 values. These values were calculated by the sigmoidal dose–response curve adjustment using the statistical software program Graph-Pad Prims 3.0 (GraphPhad, San Diego, CA, USA). Benznidazole was used as the reference drug.

[4] = system: L. amazonensis promastigote; set-up: method as in PMID 15070160; settings: cited from earlier work
[5] = system: L. braziliensis, L. amazonensis, and L. infantum promastigotes; set-up: method as in PMID 26772973; settings: read-out: IC50 against promastigotes of three Leishmania species; cited from earlier work
[6] = system: L. braziliensis, L. amazonensis, and L. infantum amastigote; set-up: method as in PMID 26772973; settings: read-out: IC50 against amastigote of three Leishmania species; cited from earlier work
[7] = system: L. infantum promastigotes; experiment: Leishmanicidal activity on L. infantum promastigotes (resazurin); type: cell-based, Leishmania infantum; settings: Leishmania infantum, 48 h, read-out: Leishmanicidal Activity on Promastigotes, L. infantum, IC50
Description: as §1

[8] = system: L. donovani promastigotes; set-up: method as in PMID 19067375; settings: cited from earlier work
[9] = Cytotoxicity on NCTC-Clone 929 fibroblasts (resazurin); type: cell-based; settings: mouse
Description: The cell line used was NCTC-Clone 929, which was grown in Minimal Essential Medium (Sigma) supplemented with 10% heat-inactivated FBS, penicillin G (100 U/mL), and streptomycin (100 µg/mL). Cell cultures were maintained at 37 °C in a humidified 5% CO2 atmosphere. The procedure for cell viability measurement was evaluated with resazurin by a colorimetric method. The cells were plated in 96-microtiter plates at 3 × 10^4 cells per well in a 100 µL growth medium. The cells were grown overnight at 37 °C, 5% CO2. Thereafter, the medium was removed and the compounds were added in a 200 µL medium for 24 h. After incubation, 20 µL of a 2 mM resazurin solution was added to each well. The plates were incubated for 3 h to allow optimal oxidation-reduction. The reduction of resazurin was determined by dual wavelength absorbance measurement at 490 and 595 nm. Background was subtracted. Each concentration was assayed three times. Medium and drug controls were used in each test as blanks.

SMILES | IC50 [2] [µg/mL] | IC50 (T. cruzi epimastigotes) [µg/mL] | IC50 [7] [µg/mL] | IC50 at 24 h [9] [µg/mL] | also measured
COc1c(C(C)C)cc2c(c1O)[C@@]1(C(=O)O)CCCC(C)(C)[C@@H]1CC2 [12-methoxycarnosic acid] | – | – | – | – | pIC50 [1]: 6.12
CC1(C)CC[C@]2(C(=O)O)CC[C@]3(C)C(=CC[C@@H]4[C@@]5(C)CC[C@H](O)C(C)(C)[C@@H]5CC[C@]43C)[C@@H]2C1 [OA, Oleanolic acid] | > 256 | > 256 | > 256 | – | IC50 against amastigote stage of L. amazonensis [3]: 11 µg/mL; IC50 against promastigote stage of L. amazonensis [4]: 10 µg/mL; pIC50 [5]: 4.18 to 4.52; pIC50 [6]: 4.16 to 4.42
C[C@H]1[C@H](C)CC[C@]2(C(=O)O)CC[C@]3(C)C(=CC[C@@H]4[C@@]5(C)CC[C@H](O)C(C)(C)[C@@H]5CC[C@]43C)[C@H]12 [Ursolic acid] | – | – | – | – | IC50 against amastigote stage of L. amazonensis [3]: 27 µg/mL; IC50 against promastigote stage of L. amazonensis [4]: 5 µg/mL
CC(C)c1c(O)ccc2c1CC[C@H]1C(C)(C)CCC[C@]21C [totarol] | – | – | – | – | IC50 against L. donovani promastigotes [8]: 3.5 µg/mL (≈ 12.2 µM); IC90 against L. donovani promastigotes [8]: 6.9 µg/mL (≈ 24.1 µM)
CC(C)c1ccc2c(c1)CCC1[C@](C)(COC(=O)CCCCc3cn(Cc4ccccc4)nn3)CCC[C@]21C (some centres unmarked) [Compound 8] | > 256 | > 256 | > 256 | > 256 | –
CC(C)c1ccc2c(c1)CCC1[C@](C)(COC(=O)CCCCc3cn(Cc4cccc(Cl)c4)nn3)CCC[C@]21C (some centres unmarked) [Compound 14] | > 256 | > 256 | > 256 | > 256 | –
CC(C)c1ccc2c(c1)CCC1[C@](C)(C(=O)OCc3cn(-c4ccccc4)nn3)CCC[C@]21C (some centres unmarked) [Compound 1] | – | 46 (≈ 101 µM) | – | > 256 | IC50 ([2]; promastigotes): 53 µg/mL (≈ 116 µM); IC50 ([7]; promastigotes): 60 µg/mL (≈ 131 µM)
COC(=O)[C@]12CCC(C)(C)C[C@H]1C1=CCC3[C@@]4(C)CC[C@H](OC(=O)CCc5cn(-c6ccccc6)nn5)C(C)(C)C4CC[C@@]3(C)[C@]1(C)CC2 (some centres unmarked) [Compound 22] | > 256 | > 256 | > 256 | > 256 | –
COC(=O)[C@]12CCC(C)(C)C[C@H]1C1=CCC3[C@@]4(C)CC[C@H](OC(=O)CCc5cn(Cc6ccc(Cl)cc6)nn5)C(C)(C)C4CC[C@@]3(C)[C@]1(C)CC2 (some centres unmarked) [Compound 26] | > 256 | > 256 | > 256 | > 256 | –
COc1ccc(-n2cc(CCC(=O)OC[C@]3(C)CCC[C@]4(C)c5ccc(C(C)C)cc5CCC34)nn2)cc1 (some centres unmarked) [Compound 11] | > 256 | > 256 | > 256 | > 256 | –
CC(C)c1cc2c(cc1O)[C@@]1(C)CCCC(C)(C)[C@@H]1CC2 [ferruginol] | – | – | – | – | IC50 against L. donovani promastigotes [8]: 3.5 µg/mL (≈ 12.2 µM); IC90 against L. donovani promastigotes [8]: 7.0 µg/mL (≈ 24.4 µM)
CC(C)c1ccc2c(c1)CCC1[C@](C)(COC(=O)CCCCc3cn(CSc4ccccc4)nn3)CCC[C@]21C (some centres unmarked) [Compound 10] | > 256 | > 256 | > 256 | > 256 | –
C#CCCCC(=O)O[C@H]1CC[C@@]2(C)C(CC[C@]3(C)C2CC=C2[C@@H]4CC(C)(C)CC[C@]4(C(=O)OC)CC[C@]23C)C1(C)C (some centres unmarked) [Compound 20] | > 256 | > 256 | > 256 | > 256 | –
CC(C)c1ccc2c(c1)CCC1[C@](C)(C(=O)OCc3cn(CSc4ccccc4)nn3)CCC[C@]21C (some centres unmarked) [Compound 3] | > 256 | > 256 | > 256 | > 256 | –
